From patent publication US20200390729A1, “OPHTHALMIC TOPICAL COMPOSITION COMPRISING DOBESILIC ACID FOR TREATING DISEASES OF THE POSTERIOR SEGMENT OF THE EYE” (LABORATORIOS SALVAT, S.A., priority 2017, published 2020) come the findings set out here.

The test system of series [1] is egg chorioallantoic membrane (CAM). Description: Ocular irritation assay (HET-CAM). Set-up: species or system White Leghorn chicken eggs. The conditions noted are these: 100 mg/ml, CAM observed for 5 minutes. The source says: The HET-CAM is an alternative method to the Draize Rabbit Eye Test which mimics vascular changes in the chorioallantoic membrane, an analog for ocular conjunctiva, which can be used to determine the potential irritancy of a test substance. This method is based on that described in Hen's Egg Test-Chorioallantoic Membrane (HET-CAM) Test Method (ICCVAM-Recommended Test Method Protocol, NIH Publication No. 10-7553—Published 2010)
Fertilized white SPF (special pathogen free) White Leghorn chicken eggs were incubated at 37° C. and 60% humidity up to day 10. After determination of the viability of the embryo, a rectangular window was removed from the shell directly over the air cell and the egg membrane was carefully moistened with 2-3 ml 0.9% saline. After returning to the incubator for 30 minutes, the inner membrane was removed and the test substance was applied to the CAM membrane with a pipette. Eggs were observed continuously for 5 minutes for the appearance of lysis, hemorrhage and/or coagulation and an irritation score (IS) was determined following the ICCVAM-Recommended Test Method Protocol (NIH Publication No. 10-7553-Published 2010) guideline.

Series [2] can be described thus: Ocular tolerability of CDO in rats, clinical eye evaluation. Format: in vivo, Diabetic SD male rats. The conditions noted are these: CDO 100 mg/ml administered topically. The method, then:
Diabetic SD male rats were treated with CDO compositions 2 and 5 of Example 1 for 28 days three times a day (topical instillation of 10 μl/eye). Clinical evaluation of the eye appearance was performed thorough the study.

Each structure is given as a SMILES string.

Regarding `O=S(=O)(O)c1cc(O)ccc1O` [CDO, Calcium dobesilate monohydrate], in series [1], the HET-CAM irritation characterization entry is on record as “not irritating” and the “HET-CAM lysis, haemorrhage or coagulation processes” value is on record as “did not trigger any lysis, haemorrhage or coagulation processes”. Also, the “tolerance after topical administration” value in series [2] is “good tolerance”.
